For one assay, the system named is APC/C^Apc10-4A, Cdh1. Description: SMOR assay, yeast APC/C^Apc10-4A, Cdh1. The assay is classed as binding, Saccharomyces cerevisiae. On the procedure:
(§1) Yeast strains were derivatives of W303 and are listed in Supplementary Table 2. For APC/C purification, we used a strain carrying Cdc16-TAP and lacking Cdh1 (DOM1126); in most experiments, the strain also carried Apc1-GFP (NHY13). Yeast were grown in YPD media to OD600 = 0.8, collected and flash-frozen. Cells were lysed by bead beating in lysis buffer A (50 mM HEPES pH 7.5, 150 mM KCl, 10% glycerol, 0.2% Triton X-100, 63 µM B-glycerophosphate, 48 µM sodium fluoride, 1 µg ml^−1 pepstatin A, 1 µg ml^−1 leupeptin, 1 µg ml^−1 aprotinin, 1 mM PMSF, 1 mM DTT, 0.5 mM EDTA) and APC/C was purified using magnetic IgG beads. The beads were washed using wash buffer A (20 mM HEPES pH 7.5, 150 mM KCl, 10% Glycerol, 0.05% Triton X-100). After incubation with purified Cdh1 or Cdc20, the APC/C was cleaved off the beads with TEV protease in wash buffer A with 0.05% Tween-20 (for single-molecule studies) or 0.05% Triton X-100 (for ensemble assays such as ubiquitylation) and used immediately.
(§2) For all SMOR experiments, 24 × 50 mm high precision glass coverslips (Bioscience Tools) and drilled microscope slides were passivated with a combination of PEG and PEG-biotin (coverslips) or PEG only (slides) following a previously published protocol for SiMPull[31]. Reaction chambers (~20 µl) were created using double-sided tape and epoxy. Protein was immobilized on the surface with 0.2 mg ml^−1 NeutrAvidin in buffer C (20 mM HEPES pH 7.5, 150 mM KCl, 10% glycerol, 0.05% Tween-20, 1 mM DTT). Excess NeutrAvidin was washed away and incubated with either biotin-conjugated mouse monoclonal anti-Strep-Tag II antibody (LSBio, Cat. No. LS-C203632-100) or biotin-conjugated rabbit polyclonal anti-GFP antibody (Rockland, Cat. No. 600-406-215) diluted in buffer C + BSA (0.1 mg ml^−1; Molecular Biology Grade Bovine Serum Albumin). Activator WD40 and activated APC/C (typically 50 µl containing about 65 ng APC/C, of which only a small fraction is immobilized on the glass) were immobilized using anti-Strep-Tag II, while APC/C alone was immobilized with anti-GFP. SMOR results were similar when performed in the buffer (wash buffer B) used in polarization anisotropy.
(§3) To capture dynamic protein–protein interactions, dye-labeled substrate diluted in buffer C + BSA was added to the chamber containing immobilized proteins. Interactions were imaged by TIRF microscopy as described below. For optimal signal-to-noise ratio, peptide concentration was no greater than 1 nM. […]
(§4) Microscopy was performed with a Nikon Eclipse TE2000-E with Perfect Focus with a 100 × 1.49na oil, Apo TIRF DIC N2, 0.13-0.2, WD0.12 objective. Movies were recorded using the Andor iXon DU-897E-CSO. […]

The next assay relates to APC/C^Apc10-4A, Cdc20. Description: SMOR assay, yeast APC/C^Apc10-4A, Cdc20. The assay is classed as binding, Saccharomyces cerevisiae. On the procedure:
as §1, §2, §3, §4

Where [1] appears, read: Supplementary Table 1, replicate 1.
[2] abbreviates: Supplementary Table 1, replicate 2.

Molecules are shown by their SMILES. Where a SMILES comes first, the peptide text is derived from it.

From article PMC8764033, “Single-molecule analysis of specificity and multivalency in binding of short linear substrate motifs to the APC/C” (Nature Communications, 2022) come the findings set out here.

`CC[C@H](C)[C@H](NC(=O)[C@H](Cc1ccccc1)NC(=O)[C@H](CO)NC(=O)[C@H](CCCCN)NC(=O)[C@H](CO)NC(=O)[C@H](CCCNC(=N)N)NC(=O)[C@H](CC(N)=O)NC(=O)[C@H](CC(N)=O)NC(=O)[C@H](CC(=O)O)NC(=O)[C@H](CCCCN)NC(=O)[C@H](C)NC(=O)[C@H](C)NC(=O)[C@H](CC(C)C)NC(=O)[C@@H]1CCCN1C(=O)[C@H](CC(C)C)NC(=O)[C@H](CCCNC(=N)N)NC(=O)CNC(=O)[C@H](CCC(N)=O)NC(=O)[C@H](CCC(N)=O)NC(=O)[C@H](CCC(N)=O)NC(=O)[C@H](C)N)C(=O)N[C@@H](CCCCN)C(=O)O` [ySecurin D box] (H-AQQQGRLPLAAKDNNRSKSFIK-OH; N-terminus and C-terminus assumed): the “Dwell Time (in words)” value with APC/C^Apc10-4A, Cdh1 (setting [1]) was “single frame”; with APC/C^Apc10-4A, Cdh1 (setting [2]), “single frame”; with APC/C^Apc10-4A, Cdc20 (setting [1]), “single frame”; with APC/C^Apc10-4A, Cdc20 (setting [2]) it was “single frame”.
Turning to `CC[C@H](C)[C@H](NC(=O)[C@H](CC(=O)O)NC(=O)[C@H](CO)NC(=O)[C@H](C)NC(=O)[C@H](C)NC(=O)[C@H](C)NC(=O)[C@H](C)NC(=O)[C@H](CCCCN)NC(=O)[C@@H]1CCCN1C(=O)[C@H](CCCCN)NC(=O)[C@H](CCC(N)=O)NC(=O)[C@@H](N)CCC(=O)O)C(=O)N[C@H](C(=O)N[C@@H](C)C(=O)N[C@@H](CO)C(=O)N[C@@H](Cc1ccccc1)C(=O)N[C@@H](CC(N)=O)C(=O)N[C@@H](CCCCN)C(=O)N[C@@H](CCSC)C(=O)N[C@@H](CC(N)=O)C(=O)N[C@@H](CCCCN)C(=O)O)[C@@H](C)O` [Hsl1 D box mutant] (H-EQKPKAAAASDITASFNKMNK-OH; N-terminus and C-terminus assumed), the “binding (in words)” value in the assay on APC/C^Apc10-4A, Cdh1 is “No binding”; with APC/C^Apc10-4A, Cdc20, “No binding”. Further, the “Dwell Time (in words)” value in the assay with APC/C^Apc10-4A, Cdh1 (setting [1]) was “no binding”; in the assay with APC/C^Apc10-4A, Cdc20 (setting [1]), “no binding”.
